{"source": "paper PMC9005681", "about": "“Use of AD Informer Set compounds to explore validity of novel targets in Alzheimer's disease pathology” (Alzheimer's & Dementia : Translational Research & Clinical …, 2022)", "experiment_in_all_cases": "PDSP GPCR panel primary binding assays at 10 μM", "key": {"[1]": {"target": "T1, cloned human or rodent CNS receptors, channels, and transporters (PDSP panel) (Homo sapiens, UniProt P21917)", "T1 construct": "expressed in transfected cells", "T1 sequence (P21917 1-419)": "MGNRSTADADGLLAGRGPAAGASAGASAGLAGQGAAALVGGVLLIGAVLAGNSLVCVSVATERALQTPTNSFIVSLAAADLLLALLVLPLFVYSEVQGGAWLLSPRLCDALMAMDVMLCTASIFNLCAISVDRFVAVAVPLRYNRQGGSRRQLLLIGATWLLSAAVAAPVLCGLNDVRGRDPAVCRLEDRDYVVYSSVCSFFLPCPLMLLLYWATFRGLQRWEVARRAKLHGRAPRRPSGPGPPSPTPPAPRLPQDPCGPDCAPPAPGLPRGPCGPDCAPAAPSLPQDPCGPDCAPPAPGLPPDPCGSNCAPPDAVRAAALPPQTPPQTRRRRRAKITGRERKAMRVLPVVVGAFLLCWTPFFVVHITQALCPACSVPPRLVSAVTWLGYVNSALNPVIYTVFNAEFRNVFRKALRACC", "details": "Receptor D4, primary assay, 10 μM", "in_short": "(§1)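 PDSP panel of 46–47 cloned human or rodent CNS receptors, channels and transporters; radioligand displacement by compound at 10 μM, in quadruplicate. Where average displacement exceeded 50%, secondary binding followed as 11-point dose-response in triplicate (none for H3, PBR or GABAA).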"}, "[2]": {"target": "T2, cloned human or rodent CNS receptors, channels, and transporters (PDSP panel) (Homo sapiens, UniProt P25021)", "T2 construct": "expressed in transfected cells", "T2 sequence (P25021 whole entry)": "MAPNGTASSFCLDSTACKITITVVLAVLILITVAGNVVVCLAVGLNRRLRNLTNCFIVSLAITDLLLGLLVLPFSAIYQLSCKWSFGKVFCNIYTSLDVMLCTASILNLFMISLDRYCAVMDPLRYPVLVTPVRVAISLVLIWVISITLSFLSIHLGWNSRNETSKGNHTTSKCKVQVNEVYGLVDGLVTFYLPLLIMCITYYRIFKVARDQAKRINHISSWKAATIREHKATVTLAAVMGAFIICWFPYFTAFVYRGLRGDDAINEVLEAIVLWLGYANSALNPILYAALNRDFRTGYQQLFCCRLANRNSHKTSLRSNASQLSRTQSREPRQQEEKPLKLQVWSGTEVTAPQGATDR", "details": "H2, primary assay", "in_short": "as §1"}, "[3]": {"target": "T3, cloned human or rodent CNS receptors, channels, and transporters (PDSP panel) (Homo sapiens, UniProt P41145)", "T3 construct": "expressed in transfected cells", "T3 sequence (P41145 whole entry)": "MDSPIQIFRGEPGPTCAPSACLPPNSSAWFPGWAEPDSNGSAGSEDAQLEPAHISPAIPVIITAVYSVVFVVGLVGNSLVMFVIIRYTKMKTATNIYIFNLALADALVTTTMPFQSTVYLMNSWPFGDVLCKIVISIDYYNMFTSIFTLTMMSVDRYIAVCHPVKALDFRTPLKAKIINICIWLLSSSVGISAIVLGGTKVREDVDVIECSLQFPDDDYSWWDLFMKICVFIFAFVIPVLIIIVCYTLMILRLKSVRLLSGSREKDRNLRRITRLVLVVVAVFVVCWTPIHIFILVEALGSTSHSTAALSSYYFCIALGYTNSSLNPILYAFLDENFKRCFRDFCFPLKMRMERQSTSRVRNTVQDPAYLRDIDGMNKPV", "details": "Receptor KOR, primary assay, 10 μM", "in_short": "as §1"}, "[4]": {"target": "T4, cloned human or rodent CNS receptors, channels, and transporters (PDSP panel) (Homo sapiens, UniProt P28223)", "T4 construct": "expressed in transfected cells", "T4 sequence (P28223 whole entry)": "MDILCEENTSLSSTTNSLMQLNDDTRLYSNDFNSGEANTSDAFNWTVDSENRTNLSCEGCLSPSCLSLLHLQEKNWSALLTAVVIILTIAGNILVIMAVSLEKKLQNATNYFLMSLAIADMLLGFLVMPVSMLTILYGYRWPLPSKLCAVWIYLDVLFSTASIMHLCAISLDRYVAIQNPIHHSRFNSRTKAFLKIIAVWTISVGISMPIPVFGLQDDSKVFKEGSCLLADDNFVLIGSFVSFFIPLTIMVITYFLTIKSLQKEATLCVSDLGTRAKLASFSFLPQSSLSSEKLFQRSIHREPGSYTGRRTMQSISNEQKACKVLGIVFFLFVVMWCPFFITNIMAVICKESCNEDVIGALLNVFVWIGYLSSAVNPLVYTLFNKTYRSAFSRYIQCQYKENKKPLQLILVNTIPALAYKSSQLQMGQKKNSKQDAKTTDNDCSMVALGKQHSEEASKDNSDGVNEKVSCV", "details": "Receptor 5-HT2A, primary assay, 10 μM", "in_short": "as §1"}, "[5]": {"target": "T5, cloned human or rodent CNS receptors, channels, and transporters (PDSP panel) (Homo sapiens, UniProt P28566)", "T5 construct": "expressed in transfected cells", "T5 sequence (P28566 whole entry)": "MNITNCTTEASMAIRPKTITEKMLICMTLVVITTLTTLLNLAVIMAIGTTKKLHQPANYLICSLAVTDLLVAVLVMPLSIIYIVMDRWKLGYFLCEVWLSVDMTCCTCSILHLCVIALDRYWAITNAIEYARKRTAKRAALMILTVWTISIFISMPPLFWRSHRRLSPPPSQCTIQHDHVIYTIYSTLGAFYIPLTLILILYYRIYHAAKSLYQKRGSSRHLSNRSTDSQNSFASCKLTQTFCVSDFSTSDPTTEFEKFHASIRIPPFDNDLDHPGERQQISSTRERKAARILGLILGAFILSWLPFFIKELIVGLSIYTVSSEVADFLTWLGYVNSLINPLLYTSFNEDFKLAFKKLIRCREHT", "details": "Receptor 5-HT1E, primary assay, 10 μM", "in_short": "as §1"}, "[6]": {"target": "T6, cloned human or rodent CNS receptors, channels, and transporters (PDSP panel) (Homo sapiens, UniProt P35367)", "T6 construct": "expressed in transfected cells", "T6 sequence (P35367 whole entry)": "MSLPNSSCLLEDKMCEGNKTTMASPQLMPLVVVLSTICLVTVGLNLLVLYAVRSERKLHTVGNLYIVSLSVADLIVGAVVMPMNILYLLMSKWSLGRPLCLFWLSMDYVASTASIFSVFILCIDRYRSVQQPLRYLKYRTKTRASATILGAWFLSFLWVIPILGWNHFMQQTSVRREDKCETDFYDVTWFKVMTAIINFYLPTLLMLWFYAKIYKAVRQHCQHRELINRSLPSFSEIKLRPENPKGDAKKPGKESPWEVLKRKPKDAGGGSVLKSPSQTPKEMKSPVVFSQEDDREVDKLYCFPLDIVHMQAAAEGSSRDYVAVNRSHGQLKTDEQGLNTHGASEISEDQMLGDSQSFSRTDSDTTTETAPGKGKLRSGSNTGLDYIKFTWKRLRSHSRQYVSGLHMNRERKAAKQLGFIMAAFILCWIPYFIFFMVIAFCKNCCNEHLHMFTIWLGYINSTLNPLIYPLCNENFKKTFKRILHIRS", "details": "Receptor H1, primary assay, 10 μM", "in_short": "as §1"}, "[7]": {"target": "T7, cloned human or rodent CNS receptors, channels, and transporters (PDSP panel) (Homo sapiens, UniProt P35372)", "T7 construct": "expressed in transfected cells", "T7 sequence (P35372 whole entry)": "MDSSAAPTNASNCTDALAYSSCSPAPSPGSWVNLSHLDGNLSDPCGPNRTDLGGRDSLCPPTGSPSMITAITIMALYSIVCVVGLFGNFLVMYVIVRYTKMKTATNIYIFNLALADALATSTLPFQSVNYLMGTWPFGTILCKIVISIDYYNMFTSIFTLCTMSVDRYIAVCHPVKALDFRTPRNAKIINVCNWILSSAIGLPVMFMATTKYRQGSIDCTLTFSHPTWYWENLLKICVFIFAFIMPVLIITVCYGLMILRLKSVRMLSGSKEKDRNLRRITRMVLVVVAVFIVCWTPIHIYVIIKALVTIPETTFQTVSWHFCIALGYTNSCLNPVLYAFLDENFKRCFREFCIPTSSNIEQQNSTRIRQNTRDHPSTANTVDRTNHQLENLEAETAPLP", "details": "Receptor MOR, primary assay, 10 μM", "in_short": "as §1"}, "[8]": {"target": "T8, cloned human or rodent CNS receptors, channels, and transporters (PDSP panel) (Homo sapiens, UniProt P11229)", "T8 construct": "expressed in transfected cells", "T8 sequence (P11229 1-460)": "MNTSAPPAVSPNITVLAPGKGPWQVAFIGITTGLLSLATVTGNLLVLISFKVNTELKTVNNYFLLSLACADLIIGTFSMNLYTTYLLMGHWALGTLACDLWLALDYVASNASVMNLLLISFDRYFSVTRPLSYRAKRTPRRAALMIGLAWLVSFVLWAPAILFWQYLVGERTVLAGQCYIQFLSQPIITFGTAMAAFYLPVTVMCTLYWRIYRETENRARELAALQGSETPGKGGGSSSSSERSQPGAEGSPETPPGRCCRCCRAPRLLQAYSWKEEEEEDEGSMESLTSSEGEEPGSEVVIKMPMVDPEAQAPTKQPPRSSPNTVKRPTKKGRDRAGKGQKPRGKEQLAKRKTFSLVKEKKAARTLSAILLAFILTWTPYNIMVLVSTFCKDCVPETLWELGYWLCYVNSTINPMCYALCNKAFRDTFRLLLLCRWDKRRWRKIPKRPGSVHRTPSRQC", "details": "M1, primary assay", "in_short": "as §1"}, "[9]": {"target": "T9, cloned human or rodent CNS receptors, channels, and transporters (PDSP panel) (Homo sapiens, UniProt P34969)", "T9 construct": "expressed in transfected cells", "T9 sequence (P34969 whole entry)": "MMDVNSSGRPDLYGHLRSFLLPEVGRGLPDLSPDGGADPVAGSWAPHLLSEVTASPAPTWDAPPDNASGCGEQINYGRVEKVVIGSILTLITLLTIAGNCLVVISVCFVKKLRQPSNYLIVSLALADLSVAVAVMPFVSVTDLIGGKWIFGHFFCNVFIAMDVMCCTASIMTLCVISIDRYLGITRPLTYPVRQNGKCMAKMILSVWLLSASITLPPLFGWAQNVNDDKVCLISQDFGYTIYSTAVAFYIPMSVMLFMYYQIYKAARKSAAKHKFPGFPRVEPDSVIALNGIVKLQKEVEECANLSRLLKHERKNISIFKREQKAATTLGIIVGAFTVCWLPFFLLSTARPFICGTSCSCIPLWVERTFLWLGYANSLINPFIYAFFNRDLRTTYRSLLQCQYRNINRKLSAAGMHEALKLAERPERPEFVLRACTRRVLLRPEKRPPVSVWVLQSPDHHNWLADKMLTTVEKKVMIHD", "details": "Receptor 5-HT7A, primary assay, 10 μM", "in_short": "as §1"}, "[10]": {"target": "T10, cloned human or rodent CNS receptors, channels, and transporters (PDSP panel) (Homo sapiens, UniProt P47898)", "T10 construct": "expressed in transfected cells", "T10 sequence (P47898 whole entry)": "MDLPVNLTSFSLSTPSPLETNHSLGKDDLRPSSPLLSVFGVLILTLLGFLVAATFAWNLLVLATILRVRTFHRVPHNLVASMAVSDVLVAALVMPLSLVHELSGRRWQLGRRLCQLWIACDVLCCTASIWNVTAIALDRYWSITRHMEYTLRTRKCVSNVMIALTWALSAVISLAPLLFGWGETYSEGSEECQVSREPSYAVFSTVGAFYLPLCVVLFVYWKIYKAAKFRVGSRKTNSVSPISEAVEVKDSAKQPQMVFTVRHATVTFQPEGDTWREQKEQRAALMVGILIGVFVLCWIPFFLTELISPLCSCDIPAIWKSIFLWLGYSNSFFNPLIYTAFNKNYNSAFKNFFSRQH", "details": "Receptor 5-HT5A, primary assay, 10 μM", "in_short": "as §1"}}}
{"smiles": "O=c1oc2ccccc2cc1-c1cn2cc(Cc3ccc(F)cc3)sc2n1", "note": "[UNC10302680A, iMDK]", "values": [{"measurement": "Inhibition 1", "setting": "[1]", "value": -9.94, "unit": "%"}, {"measurement": "Inhibition 2", "setting": "[1]", "value": -4.88, "unit": "%"}, {"measurement": "Inhibition 3", "setting": "[1]", "value": -6.5, "unit": "%"}, {"measurement": "Inhibition 4", "setting": "[1]", "value": 11.95, "unit": "%"}, {"measurement": "Mean %", "setting": "[1]; mean of Inhibition 1-4", "value": -2.34, "unit": "%"}, {"measurement": "Mean %", "setting": "[2]; mean inhibition", "value": 13.61, "unit": "%"}, {"measurement": "Inhibition 1", "setting": "[2]; replicate 1", "value": 32.28, "unit": "%"}, {"measurement": "Inhibition 2", "setting": "[2]; replicate 2", "value": 15.29, "unit": "%"}, {"measurement": "Inhibition 3", "setting": "[2]; replicate 3", "value": 9.61, "unit": "%"}, {"measurement": "Inhibition 4", "setting": "[2]; replicate 4", "value": -2.74, "unit": "%"}, {"measurement": "Inhibition 1", "setting": "[3]", "value": -23.4, "unit": "%"}, {"measurement": "Inhibition 2", "setting": "[3]", "value": -19.7, "unit": "%"}, {"measurement": "Inhibition 3", "setting": "[3]", "value": -5.6, "unit": "%"}, {"measurement": "Inhibition 4", "setting": "[3]", "value": -21.38, "unit": "%"}, {"measurement": "Mean %", "setting": "[3]; mean of Inhibition 1-4", "value": -17.52, "unit": "%"}, {"measurement": "Inhibition 1", "setting": "[4]", "value": 12.31, "unit": "%"}, {"measurement": "Inhibition 2", "setting": "[4]", "value": -11.86, "unit": "%"}, {"measurement": "Inhibition 3", "setting": "[4]", "value": -8.41, "unit": "%"}, {"measurement": "Inhibition 4", "setting": "[4]", "value": 9.68, "unit": "%"}, {"measurement": "Mean %", "setting": "[4]; mean of Inhibition 1-4", "value": 0.43, "unit": "%"}, {"measurement": "Inhibition 1", "setting": "[5]", "value": 3.08, "unit": "%"}, {"measurement": "Inhibition 2", "setting": "[5]", "value": -14.65, "unit": "%"}, {"measurement": "Inhibition 3", "setting": "[5]", "value": -14.65, "unit": "%"}, {"measurement": "Inhibition 4", "setting": "[5]", "value": -17.01, "unit": "%"}, {"measurement": "Mean %", "setting": "[5]; mean of Inhibition 1-4", "value": -10.81, "unit": "%"}, {"measurement": "Inhibition 1", "setting": "[6]", "value": 99.74, "unit": "%"}, {"measurement": "Inhibition 2", "setting": "[6]", "value": 88.41, "unit": "%"}, {"measurement": "Inhibition 3", "setting": "[6]", "value": 71.44, "unit": "%"}, {"measurement": "Inhibition 4", "setting": "[6]", "value": 51.8, "unit": "%"}, {"measurement": "Mean %", "setting": "[6]; mean of Inhibition 1-4", "value": 77.85, "unit": "%"}, {"measurement": "Inhibition 1", "setting": "[7]", "value": 9.07, "unit": "%"}, {"measurement": "Inhibition 2", "setting": "[7]", "value": 9.93, "unit": "%"}, {"measurement": "Inhibition 3", "setting": "[7]", "value": 2.65, "unit": "%"}, {"measurement": "Inhibition 4", "setting": "[7]", "value": 1.88, "unit": "%"}, {"measurement": "Mean %", "setting": "[7]; mean of Inhibition 1-4", "value": 5.88, "unit": "%"}, {"measurement": "Mean %", "setting": "[8]; mean inhibition", "value": 7.01, "unit": "%"}, {"measurement": "Inhibition 1", "setting": "[8]; replicate 1", "value": 16.84, "unit": "%"}, {"measurement": "Inhibition 2", "setting": "[8]; replicate 2", "value": 2.54, "unit": "%"}, {"measurement": "Inhibition 3", "setting": "[8]; replicate 3", "value": 0.66, "unit": "%"}, {"measurement": "Inhibition 4", "setting": "[8]; replicate 4", "value": 8, "unit": "%"}, {"measurement": "Inhibition 1", "setting": "[9]", "value": 13.87, "unit": "%"}, {"measurement": "Inhibition 2", "setting": "[9]", "value": 2.87, "unit": "%"}, {"measurement": "Inhibition 3", "setting": "[9]", "value": -0.54, "unit": "%"}, {"measurement": "Inhibition 4", "setting": "[9]", "value": 21.31, "unit": "%"}, {"measurement": "Mean %", "setting": "[9]; mean of Inhibition 1-4", "value": 9.38, "unit": "%"}, {"measurement": "Inhibition 1", "setting": "[10]", "value": -14.99, "unit": "%"}, {"measurement": "Inhibition 2", "setting": "[10]", "value": -18.16, "unit": "%"}, {"measurement": "Inhibition 3", "setting": "[10]", "value": -6.28, "unit": "%"}, {"measurement": "Inhibition 4", "setting": "[10]", "value": -0.35, "unit": "%"}, {"measurement": "Mean %", "setting": "[10]; mean of Inhibition 1-4", "value": -9.95, "unit": "%"}]}
